Measured values as given in PMC4303209, “A novel phosphatidylinositol 3-kinase (PI3K) inhibitor directs a potent FOXO-dependent, p53-independent cell cycle arrest phenotype characterized by the differential induction of a subset of FOXO-regulated genes” (Breast Cancer Research : BCR, 2014).

Tested on: MCF-7 breast cancer cells
Test: Microarray gene expression analysis (Agilent whole human genome 4 x 44K; compound vs DMSO, LIMMA log2 fold change)
Type: cell-based

## Cn1ncc2c(N3CCOCC3)nc(-c3cccc(O)c3)nc21 [ETP-45658]
Apoptosis genes, Gene 64919
  BCL11B log2FC: 0.176
Apoptosis genes, Gene 64975
  MRPL41 log2FC: -0.545
Apoptosis genes, Gene 65018
  PINK1 log2FC: 1.625
Apoptosis genes, Gene 65121
  PRAMEF1 log2FC: -0.072
Apoptosis genes, Gene 65122
  PRAMEF2 log2FC: 0.062
Apoptosis genes, Gene 65264
  UBE2Z log2FC: -0.414
Apoptosis genes, Gene 79073
  TMEM109 log2FC: -0.626
Apoptosis genes, Gene 79094
  CHAC1 log2FC: -0.144
Apoptosis genes, Gene 79155
  TNIP2 log2FC: -0.126
Apoptosis genes, Gene 79156
  PLEKHF1 log2FC: -0.469
Apoptosis genes, Gene 79228
  THOC6 log2FC: -0.373
Apoptosis genes, Gene 79370
  BCL2L14 log2FC: -0.145
Apoptosis genes, Gene 79444
  BIRC7 log2FC: -0.043
Apoptosis genes, Gene 79767
  ELMO3 log2FC: -0.597
Apoptosis genes, Gene 79811
  SLTM log2FC: 0.763
Apoptosis genes, Gene 80149
  ZC3H12A log2FC: -1.168
Apoptosis genes, Gene 80196
  RNF34 log2FC: -0.174
Apoptosis genes, Gene 80237
  ELL3 log2FC: 1.095
Apoptosis genes, Gene 80315
  CPEB4 log2FC: 0.577
Apoptosis genes, Gene 80781
  COL18A1 log2FC: -0.387
Apoptosis genes, Gene 81537
  SGPP1 log2FC: -0.165
Apoptosis genes, Gene 81858
  SHARPIN log2FC: -0.232
Apoptosis genes, Gene 83464
  APH1B log2FC: -0.559
Apoptosis genes, Gene 83593
  RASSF5 log2FC: -0.091
Apoptosis genes, Gene 83595
  SOX7 log2FC: -0.214
Apoptosis genes, Gene 83596
  BCL2L12 log2FC: -0.236
Apoptosis genes, Gene 83737
  ITCH log2FC: 0.721
Apoptosis genes, Gene 83879
  CDCA7 log2FC: 0.213
Apoptosis genes, Gene 83940
  TATDN1 log2FC: 0.636
Apoptosis genes, Gene 83941
  TM2D1 log2FC: 0.088
Apoptosis genes, Gene 84033
  OBSCN log2FC: 0.277
Apoptosis genes, Gene 84231
  TRAF7 log2FC: -0.191
Apoptosis genes, Gene 84236
  RHBDD1 log2FC: -0.533
Apoptosis genes, Gene 84260
  TCHP log2FC: 0.198
Apoptosis genes, Gene 84287
  ZDHHC16 log2FC: -0.471
Apoptosis genes, Gene 84289
  ING5 log2FC: -0.932
Apoptosis genes, Gene 84335
  AKT1S1 log2FC: -0.939
Apoptosis genes, Gene 84433
  CARD11 log2FC: 0.083
Apoptosis genes, Gene 84447
  SYVN1 log2FC: 0.455
Apoptosis genes, Gene 84524
  ZC3H8 log2FC: 1.519
Apoptosis genes, Gene 84624
  FNDC1 log2FC: -0.102
Apoptosis genes, Gene 84674
  CARD6 log2FC: 0.198
Apoptosis genes, Gene 84681
  HINT2 log2FC: -0.153
Apoptosis genes, Gene 84707
  BEX2 log2FC: 0.736
Apoptosis genes, Gene 84951
  TNS4 log2FC: -1.366
Apoptosis genes, Gene 84971
  ATG4D log2FC: -0.461
Apoptosis genes, Gene 85508
  SCRT2 log2FC: -0.569
Apoptosis genes, Gene 89780
  WNT3A log2FC: -0.585
Apoptosis genes, Gene 89846
  FGD3 log2FC: 0.596
Apoptosis genes, Gene 90249
  UNC5A log2FC: -0.468
Apoptosis genes, Gene 90427
  BMF log2FC: 2.299
Apoptosis genes, Gene 92140
  MTDH log2FC: 0.563
Apoptosis genes, Gene 92609
  TIMM50 log2FC: -0.439
Apoptosis genes, Gene 94241
  TP53INP1 log2FC: 0.920
Apoptosis genes, Gene 112398
  EGLN2 log2FC: 0.272
Apoptosis genes, Gene 112399
  EGLN3 log2FC: -0.474
Apoptosis genes, Gene 114824
  PNMA5 log2FC: 0.435
Apoptosis genes, Gene 115584
  SLC5A11 log2FC: 0.136
Apoptosis genes, Gene 117581
  TWIST2 log2FC: -0.722
Apoptosis genes, Gene 117584
  RFFL log2FC: -0.488
Apoptosis genes, Gene 121512
  FGD4 log2FC: 0.637
Apoptosis genes, Gene 122042
  RXFP2 log2FC: -0.049
Apoptosis genes, Gene 123879
  DCUN1D3 log2FC: -1.081
Apoptosis genes, Gene 130399
  ACVR1C log2FC: 0.259
Apoptosis genes, Gene 133396
  IL31RA log2FC: 0.071
Apoptosis genes, Gene 133746
  JMY log2FC: 1.016
Apoptosis genes, Gene 137970
  UNC5D log2FC: 0.118
Apoptosis genes, Gene 140735
  DYNLL2 log2FC: -0.697
Apoptosis genes, Gene 143471
  PSMA8 log2FC: 0.068
Apoptosis genes, Gene 148022
  TICAM1 log2FC: -0.493
Apoptosis genes, Gene 149428
  BNIPL log2FC: -0.061
Apoptosis genes, Gene 151112
  ZSWIM2 log2FC: 0.088
Apoptosis genes, Gene 153090
  DAB2IP log2FC: -0.220
Apoptosis genes, Gene 160728
  SLC5A8 log2FC: -0.070
Apoptosis genes, Gene 171558
  PTCRA log2FC: -0.425
Apoptosis genes, Gene 192286
  HIGD2A log2FC: -0.398
Apoptosis genes, Gene 201163
  FLCN log2FC: 0.968
Apoptosis genes, Gene 204851
  HIPK1 log2FC: -0.153
Apoptosis genes, Gene 219699
  UNC5B log2FC: -0.570
Apoptosis genes, Gene 220441
  RNF152 log2FC: -0.038
Apoptosis genes, Gene 221472
  FGD2 log2FC: -0.102
Apoptosis genes, Gene 255027
  MPV17L log2FC: -0.367
Apoptosis genes, Gene 259230
  TMEM23 log2FC: 0.357
Apoptosis genes, Gene 260425
  MAGI3 log2FC: 0.325
Apoptosis genes, Gene 282991
  BLOC1S2 log2FC: 0.498
Apoptosis genes, Gene 340371
  NRBP2 log2FC: -0.074
Apoptosis genes, Gene 342977
  NANOS3 log2FC: -0.124
Apoptosis genes, Gene 347902
  AMIGO2 log2FC: 0.532
Apoptosis genes, Gene 387263
  C6orf120 log2FC: -0.615
Apoptosis genes, Gene 392255
  GDF6 log2FC: -0.089
Apoptosis genes, Gene 399687
  MYO18A log2FC: -0.470
Apoptosis genes, Gene 401940
  PRAMEF3 log2FC: -0.272
Apoptosis genes, Gene 414149
  ADIPOQ log2FC: -0.245
Apoptosis genes, Gene 415116
  PIM3 log2FC: 0.693
Apoptosis genes, Gene 653499
  LGALS7 log2FC: -0.163
Apoptosis genes, Gene 728489
  CARD9 log2FC: -0.457
Apoptosis genes, Gene 728613
  PDCD6 log2FC: -0.285
Apoptosis genes, Gene 730092
  RRN3 log2FC: 0.619
Apoptosis genes, Gene 100133941
  CD24 log2FC: 0.127
Gene 90, cell cycle genes
  ACVR1 log2FC: 0.534
Gene 91, cell cycle genes
  ACVR1B log2FC: -0.563
Gene 116, cell cycle genes
  ADCYAP1 log2FC: 0.068
Gene 196, cell cycle genes
  AHR log2FC: 0.995
Gene 199, cell cycle genes
  AIF1 log2FC: -0.077
Gene 203, cell cycle genes
  AK1 log2FC: -0.344
Gene 207, cell cycle genes
  AKT1 log2FC: -0.608
Gene 208, cell cycle genes
  AKT2 log2FC: -0.554
Gene 247, cell cycle genes
  ALOX15B log2FC: -0.102
Gene 288, cell cycle genes
  ANK3 log2FC: 0.532
Gene 301, cell cycle genes
  ANXA1 log2FC: 0.991
Gene 311, cell cycle genes
  ANXA11 log2FC: -0.496
Gene 322, cell cycle genes
  APBB1 log2FC: 0.078
Gene 323, cell cycle genes
  APBB2 log2FC: -0.357
Gene 328, cell cycle genes
  APEX1 log2FC: 0.266
Gene 329, cell cycle genes
  BIRC2 log2FC: 0.082
Gene 351, cell cycle genes
  APP log2FC: 0.379
Gene 382, cell cycle genes
  ARF6 log2FC: -0.682
Gene 388, cell cycle genes
  RHOB log2FC: -0.133
Gene 389, cell cycle genes
  RHOC log2FC: -0.491
Gene 402, cell cycle genes
  ARL2 log2FC: -0.140
Gene 403, cell cycle genes
  ARL3 log2FC: 0.192
Gene 440, cell cycle genes
  ASNS log2FC: -0.404
Gene 571, cell cycle genes
  BACH1 log2FC: 0.774
Gene 580, cell cycle genes
  BARD1 log2FC: 0.487
Gene 585, cell cycle genes
  BBS4 log2FC: 1.207
Gene 595, cell cycle genes
  CCND1 log2FC: -1.564
Gene 596, cell cycle genes
  BCL2 log2FC: -0.310
Gene 598, cell cycle genes
  BCL2L1 log2FC: -0.991
Gene 613, cell cycle genes
  BCR log2FC: -0.914
Gene 637, cell cycle genes
  BID log2FC: -0.095
Gene 650, cell cycle genes
  BMP2 log2FC: -0.038
Gene 655, cell cycle genes
  BMP7 log2FC: -0.344
Gene 667, cell cycle genes
  DST log2FC: 0.571
Gene 672, cell cycle genes
  BRCA1 log2FC: 0.792
Gene 676, cell cycle genes
  BRDT log2FC: 0.068
Gene 699, cell cycle genes
  BUB1 log2FC: 0.803
Gene 801, cell cycle genes
  CALM1 log2FC: 0.216
Gene 811, cell cycle genes
  CALR log2FC: -0.081
Gene 815, cell cycle genes
  CAMK2A log2FC: 0.024
Gene 817, cell cycle genes
  CAMK2D log2FC: 0.613
Gene 818, cell cycle genes
  CAMK2G log2FC: 0.874
Gene 835, cell cycle genes
  CASP2 log2FC: -0.918
Gene 858, cell cycle genes
  CAV2 log2FC: 0.696
Gene 864, cell cycle genes
  RUNX3 log2FC: -0.494
Gene 890, cell cycle genes
  CCNA2 log2FC: -0.047
Gene 891, cell cycle genes
  CCNB1 log2FC: 0.072
Gene 892, cell cycle genes
  CCNC log2FC: 0.257
Gene 894, cell cycle genes
  CCND2 log2FC: -1.006
Gene 896, cell cycle genes
  CCND3 log2FC: -0.730
Gene 898, cell cycle genes
  CCNE1 log2FC: -0.471
Gene 900, cell cycle genes
  CCNG1 log2FC: 0.908
Gene 901, cell cycle genes
  CCNG2 log2FC: 3.913
Gene 940, cell cycle genes
  CD28 log2FC: 0.087
Gene 988, cell cycle genes
  CDC5L log2FC: 1.004
Gene 990, cell cycle genes
  CDC6 log2FC: -0.800
Gene 991, cell cycle genes
  CDC20 log2FC: -0.346
Gene 993, cell cycle genes
  CDC25A log2FC: -1.970
